From patent US20140200215A1, “LYSOPHOSPHATIDIC ACID RECEPTOR ANTAGONISTS” (INTERMUNE, INC., priority 2013, published 2014) come the findings set out here.

Holding throughout (assay type): cell-based
Assay [1] concerns primary fibroblasts (including lung, dermal), HFL-1, 3T3 and CHO cells expressing LPA1R. Put plainly: LPA1 migration assay (Oris cell migration). Conditions: inhibition of cell migration in response to chemoattractant (LPA, serum). From the text: Migration of primary fibroblasts (including lung, dermal), HFL-1, 3T3 and CHO cells expressing LPA1R were monitored using the Oris™ assay (Platypus Technologies, Madison, Wis.). These cells were dye (Cell Tracker Green™) loaded and serum starved for 12-24 hrs. In response to chemoattractants such as LPA and serum, the cells migrated inward in to the exclusion (detection) zone. After fixing, fluorescent cells in the detection zone were counted using a high content reader. The ability of LPA1 antagonists to inhibit cell migration is quantified by plotting cell number vs. compound concentration and curve fitting the resulting dose-response curve to a 4 parameter logistic function.

Assay [2] addresses T1, Human LPA1 (Homo sapiens, UniProt Q92633). Put plainly: LPA1 calcium flux assay. More on the design: the full-length cDNA for human LPA1 is obtained by PCR of the reverse transcription reaction; expressed in transfected cells. Conditions: human LPA1 expressing CHO cells, stimulated with 10 nM LPA; read-out: Ca Flux LPA1 IC50. Here is the method:
Establishment of a CHO Cell Line Stably Expressing Human LPA1
A 1.1 kb cDNA encoding the human LPA1 receptor is cloned from human lung. Human lung RNA (Clontech Laboratories, Inc. USA) is reverse transcribed using the RETROscript kit (Ambion, Inc.) and the full-length cDNA for human LPA1 is obtained by PCR of the reverse transcription reaction. The nucleotide sequence of the cloned human LPA1 is determined by sequencing and is confirmed to be identical to the published human LPA1 sequence (An et al. Biochem. Biophys. Res. Commun. 231:619 (1997). The cDNA is cloned into the pCDNA5 pcDNA5/FRT expression plasmid and is transfected in CHO cells using lipofectamine 2000 (Invitrogen Corp., USA). Clones stably expressing human LPA1 are selected using hygromycin and identified as cells that show Ca-influx in response to LPA.
LPA1 and LPA3 Calcium Flux Assays
Human LPA1 or LPA3 expressing CHO cells were seeded at 20,000-45,000 cells per well in a 96-well poly-D-lysine coated plate one or two days before the assay. Prior to the assay, the cells were washed once with PBS and then cultured in serum-free media overnight. On the day of the assay, a calcium indicator dye (Calcium 4, Molecular Devices) in assay buffer (HBSS with Ca^2+ and Mg^2+ and containing 20 mM Hepes and 0.3% fatty-acid free human serum albumin) was added to each well and incubation continued for 1 hour at 37° C. 10 μl of test compounds in 2.5% DMSO were added to the cells and incubation continued at room temperature for 30 minutes. Cells were then stimulated by the addition of 10 nM LPA and intracellular Ca^2+ measured using the Flexstation 3 (Molecular Devices). IC50, were determined using Graphpad prism analysis of drug titration curves.
(A change in cytosolic calcium serves as a functional read-out for many receptors and channels.)

The target of assay [3] is T1, Human LPA1. Put plainly: Beta-Arrestin based assay for human LPA1R antagonists (PathHunter). Conditions: CHO cells expressing ProLink tagged human LPA1R; antagonist mode, 0.5 micromolar LPA. Here is the method: Beta-Arrestin Based Assays for Human LPA1R Antagonists and Agonists
A CHO cell line stably expressing the ProLink™ tagged human LPA1R was obtained from DiscoverX Inc, Fremont, Calif. In this system, β-Arrestin was fused to an N-terminal deletion mutant of β-galactosidase (termed the enzyme acceptor or EA), the human LPA1R was fused to a smaller (42 amino acids) weakly complementing fragment termed ProLink™. […] Cell handling and assays were performed according to protocols specified in the PathHunter® assays kits (DiscoverX, Fremont, Calif.). Assays were performed in quadruplicate in white 384 well plates. End point luminescence data were plotted and fit to a 4 parameter logistic function to obtain IC50 values. For antagonist assays, an […] concentration of agonist (LPA) equal to 0.5 micromolar was used.

T1 sequence (Q92633 whole entry): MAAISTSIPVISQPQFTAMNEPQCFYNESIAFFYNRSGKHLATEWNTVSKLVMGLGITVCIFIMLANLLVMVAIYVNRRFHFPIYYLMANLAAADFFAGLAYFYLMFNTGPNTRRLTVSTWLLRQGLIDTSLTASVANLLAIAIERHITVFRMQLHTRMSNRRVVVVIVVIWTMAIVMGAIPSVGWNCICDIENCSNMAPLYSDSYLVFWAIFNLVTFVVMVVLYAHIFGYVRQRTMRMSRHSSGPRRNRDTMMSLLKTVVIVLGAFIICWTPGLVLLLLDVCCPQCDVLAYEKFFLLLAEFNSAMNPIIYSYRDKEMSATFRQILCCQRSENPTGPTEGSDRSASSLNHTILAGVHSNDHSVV

For orientation: EC50 means the concentration that produces a half-maximal response. A lower EC50 goes with a more potent agent. The term IC50 denotes the concentration that inhibits the measured activity by half. As to `Cc1nsc(C#Cc2cc3sc(C4(C(=O)O)CC4)cc3s2)c1NC(=O)O[C@H](C)c1ccccc1` [IT034], the results for the EC50 (in assay [1]; on Human LPA1 [3]) were 50 to 500 nM and less than 50 nM, respectively. Also, the IC50 at Human LPA1 [2] lay in the range of 50 to 500 nM.

Turning to `C[C@@H](OC(=O)Nc1c(C#Cc2ccc3cc(C4(C(=O)O)CC4)ccc3c2)sc2ncccc12)c1ccccc1` [IT035], the EC50 in assay [1] was 50 to 500 nM; on Human LPA1 [3], less than 50 nM. The IC50 at Human LPA1 [2] is greater than 500 nM.

Consider `Cc1nsc(-c2ccc3cc(-c4ccc(C(=O)O)cc4)ccc3c2)c1NC(=O)O[C@H](C)c1ccccc1` [IT040], for which the EC50 (in assay [1]; at Human LPA1 [3]) was greater than 500 nM in each case. In addition, at Human LPA1 [2], the IC50 was greater than 500 nM.

In the case of `C[C@@H](OC(=O)Nc1c(-c2ccc(-c3ccc(C4(C(=O)O)CC4)cc3)cc2)nc2cccnn12)c1ccccc1` [IT041], the EC50 (in assay [1]; on Human LPA1 [3]) was greater than 500 nM in each case. Also, the IC50 at Human LPA1 [2] fell in the range of 50 to 500 nM.

For the compound `C[C@@H](OC(=O)Nc1c(-c2ccc(-c3ccc(C4(C(=O)O)CC4)cc3)cc2)nc2ncccn12)c1ccccc1` [IT043], the results for the EC50 (in assay [1]; on Human LPA1 [3]) were 50 to 500 nM and less than 50 nM, respectively. For the same compound, the IC50 at Human LPA1 [2] lay in the range of 50 to 500 nM.

Take `Cc1nsc(-c2ccc(-c3cc4sc(C5(C(=O)O)CC5)cc4s3)cc2)c1NC(=O)O[C@H](C)c1ccccc1` [IT046]: the EC50 was 50 to 500 nM in assay [1] and less than 50 nM on Human LPA1 [3]. The IC50 at Human LPA1 [2] was greater than 500 nM.

For `Cc1noc(C#Cc2cc3sc(C4(C(=O)O)CC4)cc3s2)c1NC(=O)O[C@H](C)c1ccccc1Cl` [IT047], the EC50 (in assay [1]; at Human LPA1 [3]) was less than 50 nM throughout. The IC50 on Human LPA1 [2] was in the range of 50 to 500 nM.

For `Cc1noc(C#Cc2cc3sc(C4(C(=O)O)CC4)cc3s2)c1NC(=O)OCc1ccccc1` [IT048], the EC50 in assay [1] is 50 to 500 nM; on Human LPA1 [3], less than 50 nM. Further, the IC50 at Human LPA1 [2] was less than 50 nM.

For `C[C@@H](OC(=O)Nc1c(-c2ccc(-c3cc4sc(C5(C(=O)O)CC5)cc4s3)cc2)nnn1C)c1ccccc1` [IT050], the EC50 in assay [1] is 50 to 500 nM; at Human LPA1 [3] it was less than 50 nM. Besides, the 50% inhibitory concentration (IC50) on Human LPA1 [2] was 50 to 500 nM.

Consider `Cc1nnn(-c2ccc(-c3cc4sc(C5(C(=O)O)CC5)cc4s3)cc2)c1NC(=O)O[C@H](C)c1ccccc1` [IT051], for which the EC50 (in assay [1]; at Human LPA1 [3]) was 50 to 500 nM in each case. Moreover, at Human LPA1 [2], the IC50 is 50 to 500 nM.

In the case of `C[C@@H](OC(=O)Nc1c(-c2ccc(-c3cc4sc(C5(C(=O)O)CC5)cc4s3)cc2)cnn1C)c1ccccc1` [IT056], the EC50 is 50 to 500 nM in assay [1] and less than 50 nM on Human LPA1 [3]. For the same compound, the IC50 at Human LPA1 [2] fell in the range of 50 to 500 nM.

On to `C[C@@H](OC(=O)Nc1c(-c2cc(F)c(-c3ccc(C4(C(=O)O)CC4)cc3)cc2F)nn2ncccc12)c1ccccc1` [IT061], for which the EC50 was 50 to 500 nM in assay [1] and less than 50 nM on Human LPA1 [3]. Also, the IC50 at Human LPA1 [2] was less than 50 nM.

Regarding `C[C@@H](OC(=O)Nc1c(C#Cc2ccc3cc(C4(C(=O)O)CC4)ccc3c2)nnn1C)c1ccccc1` [IT064], the EC50 in assay [1] is 50 to 500 nM; at Human LPA1 [3] it was less than 50 nM. The IC50 at Human LPA1 [2] was less than 50 nM.

For `C[C@@H](OC(=O)Nc1c(C2CCC(c3ccc(C4(C(=O)O)CC4)cc3)CC2)cnn1C)c1ccccc1` (stereo partly drawn) [IT066], the results for the EC50 (in assay [1]; on Human LPA1 [3]) were greater than 500 nM and 50 to 500 nM, respectively. Moreover, at Human LPA1 [2], the IC50 lay in the range of 50 to 500 nM.

Take `Cc1nnn(-c2cc(F)c(-c3cc4sc(C5(C(=O)O)CC5)cc4s3)cc2F)c1NC(=O)O[C@H](C)c1ccccc1` [IT067]: the EC50 is greater than 500 nM in assay [1] and 50 to 500 nM on Human LPA1 [3]. For the same compound, on Human LPA1 [2], the IC50 was 50 to 500 nM.

In the case of `C[C@@H](OC(=O)Nc1c(C#Cc2cc3sc(C4(C(=O)O)CC4)cc3s2)nnn1C)c1ccccc1` [IT069], the EC50 is 50 to 500 nM in assay [1] and less than 50 nM on Human LPA1 [3]. For the same compound, the IC50 at Human LPA1 [2] is less than 50 nM.

`CCn1ncc(C#Cc2cc3sc(C4(C(=O)O)CC4)cc3s2)c1NC(=O)O[C@H](C)c1ccccc1` [IT070]: the EC50 (in assay [1]; at Human LPA1 [3]) was less than 50 nM in each case. The IC50 on Human LPA1 [2] is less than 50 nM.

For the compound `C[C@@H](OC(=O)Nc1c(-c2cc(F)c(-c3cc4sc(C5(C(=O)O)CC5)cc4s3)cc2F)nnn1C)c1ccccc1` [IT071], the values for the EC50 (in assay [1]; on Human LPA1 [3]) were 50 to 500 nM and less than 50 nM, respectively. Also, on Human LPA1 [2], the IC50 lay in the range of 50 to 500 nM.

For `C[C@@H](OC(=O)Nc1c(C#Cc2cc3sc(C4(C(=O)O)CC4)cc3s2)nn2ccccc12)c1ccccc1` [IT073], the EC50 (in assay [1]; on Human LPA1 [3]) was 50 to 500 nM in each case. At Human LPA1 [2], the IC50 was less than 50 nM.

Turning to `C[C@@H](OC(=O)Nc1c(CCc2cc3sc(C4(C(=O)O)CC4)cc3s2)cnn1C)c1ccccc1` [IT099], the EC50 in assay [1] was greater than 500 nM; at Human LPA1 [3], 50 to 500 nM. Also, the IC50 on Human LPA1 [2] is greater than 500 nM.
